Broadly, the EC50 is the concentration that produces a half-maximal response. A low value points to a more potent agent. Usually CC50 stands for the concentration giving 50% cytotoxicity. Low values mean greater toxicity to the cells, high ones lower toxicity to the cells. As a reminder, the logP is the decadic logarithm of the partition coefficient of the neutral form, usually between octanol and water.

This note sets out measurements from ChEMBL document CHEMBL1134362, “New 3'-azido-3'-deoxythymidin-5'-yl O-(omega-hydroxyalkyl) carbonate prodrugs: synthesis and anti-HIV evaluation” (J Med Chem, 2001).

Data set [1] relates to Human immunodeficiency virus 1. Kind of data set: Inhibition of HIV-1 (IIIB) cytopathicity in human peripheral blood mononuclear cells. Type of data set: functional, organism-based. In general terms: Damage to the host cells serves as the signal in cytopathic effect assays.
The subject of data set [2] is Human immunodeficiency virus 1. Nature of the data set: Inhibition of HIV-1 (BRU) cytopathicity in MT-4 (human leukemia). It is filed as functional, organism-based.
The subject of another data set is MT4. Nature of the data set: Cytotoxicity against MT-4 (human leukemia) cells. It is filed as functional.
Data set [3] can be described thus: (§1) Cytotoxicity against human peripheral blood mononuclear cells. Type of data set: functional.
A short description of data set [4]: as §1. It is filed as functional. The source holds these as a separate data set.
Data set [5] concerns Human immunodeficiency virus 1. Kind of data set: Inhibition of HIV-1 (BaL) cytopathicity in human peripheral blood mononuclear cells. It is filed as functional, organism-based.
Data set [6] is described as follows: Partition coefficient (logP). Type of data set: physicochemical. Particulars: octanol/water.
Another data set is filed under the species Homo sapiens. Nature of the data set: Time required for 50%hydrolysis of prodrug to AZT in normal human serum was determined. Type of data set: ADME, organism-based.
Data set [7] is described as follows: Selectivity index (CC50/EC50). It is filed as functional.

Take `Cc1cn([C@H]2C[C@H](N=[N+]=[N-])[C@@H](CO)O2)c(=O)[nH]c1=O` [ZIDOVUDINE]: the figures for the EC50 in [1], in data set [2] and in data set [5] were 7.5 nM, 25 nM and 11 nM, respectively. Besides, the CC50 is greater than 100000 nM in the data set on MT4, 11000 nM in data set [3] and 8000 nM in data set [4].

As to `Cc1cn(C2CC(N=[N+]=[N-])C(COC(=O)OCCO)O2)c(=O)[nH]c1=O` (stereo not given), the logP in data set [6] is recorded as -1.2. Moreover, the EC50 in data set [2] came to 10 nM. For the same molecule, the T1/2 in the data set listed under Homo sapiens is less than 1 min. The same molecule displayed a CC50 in the data set on MT4 greater than 50000 nM. Also, in data set [7], the SI is greater than 5000.

`Cc1cn(C2CC(N=[N+]=[N-])C(COC(=O)OCCCCCCCCO)O2)c(=O)[nH]c1=O` (stereo not given): the log partition coefficient (logP) in [6] (read-out: logP) was 1.14. The molecule further gave an EC50 in [2] of 2.5 nM. Also, the T1/2 in the data set listed under Homo sapiens amounted to 2 min. This molecule returned a CC50 with MT4 greater than 50000 nM. Further, the SI in data set [7] is greater than 20000.

Consider `Cc1cn(C2CC(N=[N+]=[N-])C(COC(=O)CCCN)O2)c(=O)[nH]c1=O` (stereo not given), for which the logP in data set [6] (read-out: logP) is -0.9. In data set [2], this molecule yielded an EC50 of 20 nM. In addition, in the data set filed under Homo sapiens, the T1/2 was 26 min. Besides, the CC50 in the data set with MT4 is greater than 50000 nM. The same molecule registered an SI in data set [7] greater than 2500.

In the case of `Cc1cn(C2CC(N=[N+]=[N-])C(COC(=O)OCCCN)O2)c(=O)[nH]c1=O` (stereo not given), in data set [6] (read-out: logP), the logP was -0.93. Further, the EC50 in [2] was found to be 20 nM. Further, the T1/2 in the data set listed under Homo sapiens is 8 min. Also, the CC50 with MT4 is greater than 50000 nM. Besides, the SI in data set [7] is greater than 2500.

Regarding `Cc1cn(C2CC(N=[N+]=[N-])C(COC(=O)NCCCO)O2)c(=O)[nH]c1=O` (stereo not given), in [6] (read-out: logP), the logP was -1.24. In [2], this molecule displayed an EC50 of 100 nM. Moreover, in the data set filed under Homo sapiens, the T1/2 is recorded as greater than 2880 min. The CC50 with MT4 is greater than 50000 nM. Further, the SI in data set [7] was greater than 500.

In the case of `Cc1cn(C2CC(N=[N+]=[N-])C(COC(=O)NCCCC(=O)O)O2)c(=O)[nH]c1=O` (stereo not given), the logP in data set [6] (read-out: logP) was -0.81. In data set [2], this molecule registered an EC50 of 100 nM. The T1/2 in the data set listed under Homo sapiens is on record as greater than 2880 min. Further, the half-maximal cytotoxic concentration (CC50) with MT4 is greater than 50000 nM. Moreover, the SI in data set [7] was greater than 500.

Molecule `Cc1cn(C2CC(N=[N+]=[N-])C(COC(=O)CCCC(=O)O)O2)c(=O)[nH]c1=O` (stereo not given) had a logP in data set [6] of -0.52. In data set [2], this molecule returned an EC50 of 7 nM. Moreover, the T1/2 in the data set listed under Homo sapiens amounted to 1800 min. This molecule had a CC50 in the data set with MT4 greater than 50000 nM. The SI in data set [7] was greater than 7140.

For the molecule `Cc1cn(C2CC(N=[N+]=[N-])C(COC(=O)CCCC(=O)OC(C)(C)C)O2)c(=O)[nH]c1=O` (stereo not given), in data set [6] (read-out: logP), the logP came to 1.17. The EC50 in data set [2] was 5 nM. In addition, the T1/2 in the data set listed under Homo sapiens was 33 min. In the data set on MT4, this molecule gave a CC50 greater than 50000 nM. Besides, in data set [7], the SI was greater than 10000.

In the case of `Cc1cn(C2CC(N=[N+]=[N-])C(COC(=O)OCCCC(=O)OC(C)(C)C)O2)c(=O)[nH]c1=O` (stereo not given), the logP in [6] (read-out: logP) amounted to 1.14. In addition, the concentration for a half-maximal effect (EC50) in data set [2] was 5 nM. In addition, in the data set listed under Homo sapiens, the T1/2 is 16 min. The molecule also returned a CC50 in the data set on MT4 greater than 50000 nM. In addition, the SI in [7] was greater than 10000.

On to `Cc1cn(C2CC(N=[N+]=[N-])C(COC(=O)OCCCC(=O)O)O2)c(=O)[nH]c1=O` (stereo not given), for which the logP in [6] (read-out: logP) was -0.55. Further, a half-maximal response in [2] (EC50) required 5 nM. In the data set listed under Homo sapiens, the T1/2 came out at 780 min. In the data set on MT4, the CC50 is greater than 50000 nM. Further, in [7], the SI was greater than 10000.

On to `Cc1cn(C2CC(N=[N+]=[N-])C(COC(=O)OCCCCCCO)O2)c(=O)[nH]c1=O` (stereo not given), for which the logP in data set [6] (read-out: logP) came out at 0.08. In addition, a half-maximal effect in data set [2] (EC50) was put at 10 nM. Moreover, the T1/2 in the data set listed under Homo sapiens was determined as 7 min. In the data set with MT4, this molecule gave a CC50 greater than 50000 nM. This molecule also returned an SI in data set [7] greater than 5000.

Take `Cc1cn(C2CC(N=[N+]=[N-])C(COC(=O)OCCCCO)O2)c(=O)[nH]c1=O` (stereo not given): the EC50 in data set [1] came to 0.78 nM; in [2], 0.5 nM; in [5], 0.78 nM. In [6], this molecule yielded a logP of -0.68. Besides, the T1/2 in the data set listed under Homo sapiens came out at 30 min. Also, the CC50 is greater than 50000 nM in the data set with MT4, 24000 nM in data set [3] and 29000 nM in data set [4].

With `Cc1cn(C2CC(N=[N+]=[N-])C(COC(=O)NCCCC(=O)OC(C)(C)C)O2)c(=O)[nH]c1=O` (stereo not given), the logP in data set [6] (read-out: logP) was 0.88. Moreover, in [2], the response was half-maximal at 10 nM (EC50). For the same molecule, the T1/2 in the data set filed under Homo sapiens was greater than 2880 min. Moreover, the CC50 with MT4 was greater than 50000 nM. This molecule displayed an SI in data set [7] greater than 5000.

As for `Cc1cn(C2CC(N=[N+]=[N-])C(COC(=O)CCCO)O2)c(=O)[nH]c1=O` (stereo not given), in data set [6] (read-out: logP), the logP was -0.95.

Consider `Cc1cn(C2CC(N=[N+]=[N-])C(COC(=O)OCCCO)O2)c(=O)[nH]c1=O` (stereo not given), for which the logP in data set [6] is -0.98. Moreover, it took 10 nM to reach a half-maximal effect in [2] (EC50). In addition, the T1/2 in the data set filed under Homo sapiens is 10 min. Moreover, the CC50 in the data set on MT4 is greater than 50000 nM. The molecule also displayed an SI in data set [7] greater than 5000.

`Cc1cn(C2CC(N=[N+]=[N-])C(COC(=O)OCCCCCO)O2)c(=O)[nH]c1=O` (stereo not given): the lipophilicity (logP) in data set [6] (read-out: logP) was -0.45. In data set [2], this molecule displayed an EC50 of 10 nM. The T1/2 in the data set filed under Homo sapiens is 16 min. For the same molecule, in the data set with MT4, the CC50 is greater than 50000 nM. This molecule came in with an SI in data set [7] greater than 5000.

Consider `Cc1cn(C2CC(N=[N+]=[N-])C(COC(=O)NCCCN)O2)c(=O)[nH]c1=O` (stereo not given), for which the logP in [6] (read-out: logP) is -1.19. Also, the concentration giving a half-maximal response (EC50) in [2] worked out at 10 nM. Moreover, the T1/2 in the data set filed under Homo sapiens is recorded as greater than 2880 min. The molecule also had a CC50 in the data set with MT4 greater than 50000 nM. Besides, the SI in data set [7] was greater than 5000.

As for `CCCCOC(=O)OCC1OC(n2cc(C)c(=O)[nH]c2=O)CC1N=[N+]=[N-]` (stereo not given), the logP in [6] (read-out: logP) stood at 1.02. In data set [2], this molecule had an EC50 of 8 nM. In the data set listed under Homo sapiens, the T1/2 was determined as 9 min. Also, the CC50 in the data set on MT4 was greater than 50000 nM. In [7], this molecule came in with an SI greater than 6250.
